Test results published in US12729368B2, “Methods and compositions for generating oligodendrocyte progenitor cells” (Trailhead Biosystems Inc., priority 2022, dated 2026).
Several values for one entry are separate records, joined by “and”; a condition that tells them apart may be missing. Equal entries are not always repeated.

Legend:
Format in all cases: cell-based, human
pre-OPCs [1] = test: HD-DoE 12-factor model for stage 2 (version 1), 3 days on stage 1 pre-OPCs; conditions: optimized for maximum expression of OLIG2 at 1841.6; negative impact
Excerpt: To engineer the recipe of stage 2 of differentiation, cells were first cultured in the stage 1 media described in Example 1 and then treated with combinations of 8 or 12 factors for 3 days and the gene expression of cells in each condition was modeled. At this point, due to short duration of culture (only six days in vitro), we decided to focus on maximal expression of OLIG2 and maintenance of high expression of NKX2-2, while initiating expression of SOX10, OLIG1 and PDGFRa, to guide the cells towards oligodendrocyte fate (Emery and Lu (2015). Cold Spring Harb Perspect Biol. 7:a020461; Perlman et al. (2020). Glia 68:1291-1303; Goldman and. Kuypers (2015) Development 142:3983-95).
In one 12-factor model, the individual and combinatorial impact of SUN 11602 an agonist for FGF signaling pathway, FGF2, Activin A an activator of one of the receptors of TGF-b superfamily, A 8301, an inhibitor of TGF-b pathway, CHIR99021 a WNT activator, AGN193109 a RA antagonist, MK2206 an AKT inhibitor, Purmorphamine an agonist of SHH signaling pathway, AZD3147 an antagonist of mTOR pathway, MHY1485 an agonist of mTOR pathway, SC79 an agonist of AKT pathway and G06983 an inhibitor of PKC pathway, were tested.
Dynamic profile analysis was used to assess the expression levels of other genes of interests, such as NKX2-2, OLIG1 and SOX10, while the model is maximized for OLIG2. Activin A and SUN 11602 were brought down to zero due to their very low factor contribution. We observed when the model is optimized, the expression level of NKX2-2 is at 3000, PDGFRa at 1000, OLIG1 at 80 and SOX10 at 15 (FIG. 12).

pre-OPCs [2] = test: HD-DoE second 12-factor model for stage 2 (Purmorphamine with TTNPB, Biotin, Insulin etc.); conditions: optimized for OLIG2; input for minimal expression (negative)
Experimental: To gain more information about the effect of Purmorphamine on differentiation of pre-OPCs to a more committed cell population, we tested this factor in two other models. In a 12-factor model, we included Purmorphamine, FGF2, AGN193109 and CHIR99021 along with 8 new inputs including TTNPB, Biotin, Insulin, propionate, DBZ, Yhhu3792, LDN193189 and Y-27632. […] In another 12-factor model, Purmorphamine was tested along with A 8301, CHIR99021, Dexamethasone, T3+T4, PD0325901, ZM336372, DBZ, BMP7, PD173074, SANT-1 and PDGF-AA.

pre-OPCs [3] = test: HD-DoE 8-factor model for stage 2 (version 2) on pre-OPCs; conditions: negative impact
Experimental: To engineer the recipe of stage 2 of differentiation, cells were first cultured in the stage 1 media described in Example 1, then, 48 or 96 different combinations of effectors generated using Design-of-Experiments compression through D-optimality were robotically prepared. The effector combinations were prepared in a basal media and were subsequently added to the cells, which were then allowed to differentiate. Three days later RNA extraction was performed, and gene expression was obtained using quantitative PCR analysis. The data was normalized and modeled using partial least squares regression analysis to the effector design, resulting in the generation of gene-specific models, which after model tuning for maximal predictive power, provided explanation of the effectors ability to control the expression of individual genes, combinatorically, and individually. Solutions within the tested space could then be explored to address desirability.
At this point, due to short duration of culture (only six days in vitro) we decided to focus on maximal expression of OLIG2 and maintenance of high expression of NKX2-2, while initiating expression of SOX10, OLIG1 and PDGFRa, to guide the cells towards oligodendrocyte fate (Emery and Lu (2015). Cold Spring Harb Perspect Biol. 7:a020461; Perlman et al. (2020). Glia 68:1291-1303; Goldman and Kuypers (2015) Development 142:3983-95). In one 8-factor model, the individual and combinatorial impact of CHIR99021 (a WNT pathway agonist), AGN193109 (an RA pathway antagonist), FGF-2 (an FGFR agonist), Purmorphamine (an SHH pathway agonist), AICAR (an AMPK agonist), GW3965 (an LXR pathway agonist), GW590735 (a PPAR-a agonist) and AZD3147 (a mTOR antagonist) on further differentiation of cells were tested.

[4] = system: cells cultured in stage 1 and stage 2 differentiation media; test: Two further HD-DoE models optimized for SOX10 (IGF-1, FGF-2, AGN193109)
Excerpt: According to literature, proteins such as FGF-2, IGF-1, PDGF-AA and NT-3 play an important role in oligodendrocyte differentiation (Goldman and Kuypers (2015) Development 142:3983-95). In the first model, FGF-2 had positive regulatory impact only on the expression level of SOX10 and IGF-1 on PDGFRa. Therefore, to further understand the impact of IGF-1 and FGF-2 on differentiation of cells and confirm their positive role, we included these factors in two other models and optimized the models for maximum expression of SOX10. This gene is one of the main transcription factors of oligodendrocytes, along with OLIG2 and NKX2-2 that has shown the potential to commit the stem cells to oligodendrocytes in reprogramming efforts (Wang et al, (2014) Proc Natl Arad Sri USA 111:E2885-94; García-León et al. (2018) Stem Cell Reports 10:655-672).

OPCs [5] = test: HD-DoE 8-factor model for stage 4 on OPCs; conditions: optimized for maximal expression of CNP at 1339
Experimental: (§1) To engineer the recipe of stage 4 of differentiation, 48 or 96 different combinations of effectors generated using Design-of-Experiments compression through D-optimality were robotically prepared. The effector combinations were prepared in a basal media and were subsequently added to the cells, which were treated with the stage 1, stage 2 and stage 3 differentiation media as described in the earlier examples to generate OPCs. […] Solutions within the tested space could then be explored to address desirability.

OPCs [6] = test: HD-DoE 12-factor model for stage 4 on OPCs, 6 days in culture
Experimental: as §1, with “desirability. […] Benarroch (2009) Neurology 72:1779-1785; Shi et al. (2019) Exp Ther Med, 18:1258-1266).” for “desirability.”

[7] = system: cells cultured in stage 1 and stage 2 differentiation media; test: HD-DoE 8-factor model for stage 3 (version 2)
Experimental: To further differentiate the cells to an oligodendrocyte progenitor identity, additional HD-DoE experiments were performed on the cells that were cultured in stage 1 and stage 2 differentiation media. After 3 days, gene expression of cells in different combinatorial conditions were investigated. At this time, we focused on maximal expression of signature oligodendrocyte progenitor genes such as SOX10, OLIG1 and PDGFRa (Goldman and Kuypers (2015) Development 142:3983-95: Marques et al. (2016) Science 352:1326-1329). In one 8-factor model, individual and combinatorial effects of TTNPB (an RA agonist), CHIR99021, FGF-2, IGF-1, AGN193109, Purmorphamine, MHY1485 (a mTOR pathway agonist) and SC79 (an AKT pathway agonist) were tested to guide the cells toward a SOX10/PDGFRa positive population. […] CHIR99021 was also positive, with a factor contribution of 8.1 (FIG. 33).
Other positive factors were IGF-1, with a factor contribution of 11.2, CHIR99021, with a factor contribution of 8.5 and TTNPB, with a factor contribution below 1 (FIG. 34).
To confirm the impact of TTNPB, FGF-2 and IGF-1 on a bigger scale, we investigated the expression profile of a larger group of genes defining late oligodendrocyte progenitor population, such as ID2, CSPG4, FYN, SOX8, PLP1 and BCAN (Perlman et al. (2020). Glia 68:1291-1303; Goldman and Kuypers (2015) Development 142:3983-95; van Tilborg et al. (2018) Glia 66:221-238) and neuronal genes such as NEUROD1, NEUROG1 and NEUROG2 in presence of IGF-1, FGF-2 or TTNPB.

[8] = optimized for CNP at 1790, negative impact
[9] = optimized for CNP at 1790, positive

Cc1ccc(C2=CCC(C)(C)c3ccc(C#Cc4ccc(C(=O)O)cc4)cc32)cc1 [AGN193109]
factor contribution (pre-OPCs [1]): 23.2
factor contribution (pre-OPCs [2]): 18.3
factor contribution (pre-OPCs [3]; optimized for maximum expression of OLIG1 at 454.7): 25.3
factor contribution (pre-OPCs [3]; optimized for maximum expression of OLIG2 at 3325): 25.8
factor contribution ([4]; increasing level of SOX10, positive effect): 16

O=C(O)CCCC[C@@H]1SC[C@@H]2NC(=O)N[C@@H]21 [Biotin]
factor contribution (OPCs [5]; negative impact): 12
factor contribution (OPCs [6]; [8]): 16 and 16.5

N[C@@H](Cc1cc(I)c(Oc2ccc(O)c(I)c2)c(I)c1)C(=O)O [T3]
factor contribution (OPCs [5]; positive): 18
effect on other OL genes and neuronal gene NeuroG1 (OPCs [6]; factor effect plots): can upregulate other OL genes such as PLP1, PTGDS, KLK6 and MBP while downregulating neuronal gene NeuroG1
factor contribution (OPCs [6]; [8]): 1.2

IGF-1: IGFR activator (insulin-like growth factor 1)
effect on late OPC genes and neuronal genes ([7]; factor plots vs concentration): expression levels of OPC genes increased as the concentration of IGF-1 increased, while neuronal genes decreased
factor contribution ([7]; optimized for maximum expression of PDGFRa at 853.4, positive): 11.2
impact on the expression level of SOX10 ([4]; two other models optimized for SOX10): positive impact
factor contribution (OPCs [5]; positive): below 1
factor contribution (OPCs [6]; [9]): 5

Insulin: insulin receptor agonist
factor contribution (OPCs [5]; positive): 10
factor contribution (OPCs [6]; [9]): 3
factor contribution (OPCs [6]; optimized for PLP1 at 3600, positive): 13 and 13.2
